Residues, ends and D or L forms follow the SMILES beside them.

Data set [1] relates to Snail-1 mRNA. As to the kind of experiment: Real time RT-PCR, Snail-1 mRNA expression. Type of data set: cell-based, human. From the text:
The real-time reverse transcription polymerase chain reaction (RT-PCR) uses fluorescent reporter molecules to monitor the production of amplification products during each cycle of the PCR reaction. This combines the nucleic acid amplification and detection steps into one homogeneous assay and use of appropriate chemistries and data analysis eliminates the need for Southern blotting or DNA sequencing for amplicon identification. Its simplicity, specificity and sensitivity, together with its potential for high throughput and the ongoing introduction of new chemistries, more reliable instrumentation and improved protocols, has made real-time RT-PCR the benchmark technology for the detection and/or comparison of RNA levels.’
In order to detect and quantify the expression of specific genes at mRNA level, real-time reverse transcriptase polymerase chain reaction (Real time RT-PCR) was performed. Total RNA of samples was isolated and purified using the PureLink® RNA Mini Kit (Life technologies). The concentration of total RNA was detected by NanoDrop 2000 Spectrophotometer (Thermo Scientific). The total RNA (2000 ng) was reverse transcribed using the High-Capacity cDNA Reverse Transcription Kit (Applied Biosystems™).
The primers of target genes were TaqMan™ Gene Expression Assay for human PLAU (Hs01547054_m1), MMP-2 (Hs01548727_m1), MMP-9 (Hs00957562_m1), Snail-1 (Hs00195591_m1), Snail-2 (Hs00161904_m1), N-cadherin (Hs00983056_m1) and Twist (Hs01675818_s1). Relative quantification was done by reference to 18S ribosomal RNA (18S rRNA) and analysed using the comparative critical threshold (Ct) method
The mRNA expression of MMPs was measured using qRT-PCR. This was tested three independent times; the results are shown in Tables 9, 10 and 11 for U251, U87 cells and O81024 cells respectively. Results are reported as percent of the control cells (no treatment). Both MMP-2 and uPA were decreased in U251 by SEQ ID NO.1.
Epithelial-mesenchymal transition (EMT) is the process by which epithelial cells acquire a migratory (metastatic) phenotype and so EMT is associated with cancer metastasis, cancer cell stemness, chemoresistance and immune resistance. Therefore, the determination of the mRNA expression of EMT markers is a valuable tool to evaluate invasion potential of cancer cells.
The ‘Snail’ superfamily is involved in cell differentiation and survival, two processes central in cancer research. Snail-1 has a pivotal role in the regulation of epithelial-mesenchymal transition (EMT) and Snail-1 expression is associated with poor prognosis in metastatic cancer, and tumours with elevated Snail-1 expression are harder to treat. The significance of Snail-1 as a prognostic indicator, its involvement in the regulation of EMT and metastasis, and its roles in both drug and immune resistance point out that Snail-1 is an attractive target for tumour growth inhibition and a target for sensitization to cytotoxic drugs (Kaufhold et al., 2014). Twist is transcriptionally active during cell differentiation and lineage determination. During the establishment of cancer metastases by EMT, Twist acts independently of Snail to suppress E-cadherin and to upregulate N-cadherin (CDH-2) and fibronectin. Snail-2 (Slug) is another member of the SNAIL family of transcriptional activators and serves an important role in suppressing the epithelial phenotype in numerous cancer cells (Iwadate, 2016).

Data set [2] relates to 081024 cells. The data set is described as follows: MTT assay for cytotoxicity, 081024 oncospheres. Type of data set: cell-based, human. The conditions noted are these: % viability of control. From the text: The MTT (3-[4.5-dimethylthiazol-2-yl]-2,5═diphenyl tetrazolium bromide) assay is based on a process undertaken by living cells, involving the conversion of MTT into formazan crystals. This assay is used routinely to measure the in vitro cytotoxic effects of drugs on cell lines or primary patient cells (Van Meerloo et al., 2011). The MTT assay measures mitochondrial activity, so in some instances where the peptide activates mitochondrial response, the results appear to increase the number of cells present i.e. >100% cell viability.
The aim of this experiment was to identify peptide concentrations that are active on living cells and cell viability was assessed.
The glioblastoma multiforme (GBM) cell lines used were U87 and U251 cells and patient derived cells grown as oncospheres (081024 cells). Human adherent GBM cell lines U87 and U251 were cultured in RPMI medium (Life Technologies Melbourne Australia) supplemented with 5% v/v FBS, 100 U/mL penicillin and 100 μg/mL streptomycin. 081024 cells were cultrured in NeuroCult™ NS-A Proliferation medium with 0.2% (v/v) heparin, 20 ng/mL EGF and 10 ng/mL FGF.
8×10^3 U87 and 7×10^3 U251 cells per well were seeded in 96 well plates in 200 μL serum-containing RPMI medium and incubated at 37° C. with 5% CO2 for 24 hours. After one wash with serum-free medium, 100 μL serum-free medium with different concentration of peptide SEQ ID NO:1 was added to each well. After 48 hours incubation, 10 μL of 0.5 mg/mL MTT was added and incubated for 2 hours at 37° C. Formazan crystals were dissolved by 200 μL/well dimethyl sulfoxide (DMSO) and shaking for 15 minutes. The UV absorbance was read with an iMark™ microplate absorbance reader at 595 nm (Bio-Rad Laboratories). Background absorbance was subtracted and results expressed as the % viability of control (untreated cells).

Take `CC(C)C[C@@H]1NC(=O)[C@H](C)NC(=O)[C@@H](NC(=O)[C@@H]2CCCN2C(=O)[C@@H](N)CC(C)C)CSSC(C)(C)CNC(=O)CC[C@@H](C(=O)N[C@@H](CCCNC(=N)N)C(N)=O)NC(=O)[C@H](CC(=O)O)NC(=O)[C@H](CC(N)=O)NC1=O` [SEQ ID NO: 1, Leu-Pro-c(SSA*-Ala-Leu-Asn-Asp-Glu)-Arg-NH2] (HELM PEPTIDE1{L.P.C.A.L.N.D.E.R.[am]}|CHEM1{[CC(C)(CN[*:2])S[*:1]]}$PEPTIDE1,CHEM1,3:R3-1:R1|PEPTIDE1,CHEM1,8:R3-1:R2$$$V2.0; N-terminus assumed): the “mRNA expression, Snail-1” value in data set [1] (081024 cells, baseline expression level = 1, listed as SEQ ID NO. 1) is on record as 0.60; in data set [1] (081024 cells, baseline expression level = 1, listed as SEQ ID NO.1), “halved”; in data set [1] (U87 cells, baseline expression level = 1), 0.84; in data set [1] (U251 cells, relative to control (no treatment), listed as SEQ ID NO. 1), 0.42; in data set [1] (U251 cells, relative to control (no treatment), listed as SEQ ID NO.1), “decreased”. Besides, the Cell viability was 104.2% in data set [2] (1 μM); 106.8% in data set [2] (5 μM); 106.7% in data set [2] (10 μM); 106.5% in data set [2] (50 μM); 106.9% in data set [2] (100 μM); 99.68% in data set [2] (500 μM). For the same compound, in data set [2] (1 mM), the Cell viability is listed as 89.58%.
